Several values for one entry are separate records, joined by “and”; a condition that tells them apart may be missing. Equal entries are not always repeated. Results filed as inconclusive are left out.
Tested on: CD8F1 mice, subcutaneous mammary adenocarcinoma, T/C%
Assay: NCI In Vivo Anticancer Drug Screen. Data for tumor model Mammary Adenocarcinoma CD8F1 (subcutaneous) in CD8F1
Conditions: higher = larger tumour
Procedure, shortened: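 Antitumor activity is assessed in transplantable-tumor mice by comparing the treated group with a vehicle-treated control group. Survival or tumor size serves as the measure, reported as T divided by C.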

[1] = endpoint: median tumor weight (est.), dose: 50.0 mg/kg/injection, schedule: Q07DX005 (ip), vehicle: saline
[2] = endpoint: median tumor weight change, dose: 25.0 mg/kg/injection, schedule: Q01DX001 (ip), vehicle: saline
[3] = endpoint: median tumor weight change, dose: 50.0 mg/kg/injection, schedule: Q01DX001 (ip), vehicle: saline
[4] = endpoint: median tumor weight change, dose: 100.0 mg/kg/injection, schedule: Q01DX001 (ip), vehicle: saline
[5] = endpoint: median tumor weight (est.), dose: 3.0 mg/kg/injection, schedule: Q07DX005 (ip), vehicle: saline with Tween-80
[6] = endpoint: median tumor weight (est.), dose: 6.0 mg/kg/injection, schedule: Q07DX005 (ip), vehicle: saline with Tween-80
[7] = endpoint: median tumor weight (est.), dose: 12.0 mg/kg/injection, schedule: Q07DX005 (ip), vehicle: saline with Tween-80

With `O=c1[nH]cc(F)c(=O)[nH]1` the T/C (endpoint: mean tumor weight (est.), dose: 50.0 mg/kg/injection, schedule: Q07DX004 (ip), vehicle: saline) was 28 % of control, the T/C (endpoint: mean tumor weight (est.), dose: 50.0 mg/kg/injection, schedule: Q07DX004 (iv), vehicle: saline) was 25 % of control and the T/C (endpoint: mean tumor weight (est.), dose: 100.0 mg/kg/injection, schedule: Q07DX003 (ip), vehicle: saline) was 15 % of control. The T/C (endpoint: mean tumor weight (est.), dose: 100.0 mg/kg/injection, schedule: Q07DX004 (ip), vehicle: saline) was 2 % of control, the T/C (endpoint: mean tumor weight (est.), dose: 100.0 mg/kg/injection, schedule: Q07DX004 (iv), vehicle: saline) was 3 % of control and the T/C (endpoint: mean tumor weight (est.), dose: 115.0 mg/kg/injection, schedule: Q07DX003 (ip), vehicle: saline) was 14 % of control. For the same compound, the T/C (endpoint: mean tumor weight (est.), dose: 130.0 mg/kg/injection, schedule: Q07DX003 (ip), vehicle: saline) was 5 % of control, the T/C (endpoint: mean tumor weight, dose: 5.0 mg/kg/injection, schedule: Q01DX009 (ip), vehicle: saline) was 159 % of control and the T/C (endpoint: mean tumor weight, dose: 10.0 mg/kg/injection, schedule: Q01DX009 (ip), vehicle: saline) was 199 % of control. For the same compound, the T/C (endpoint: mean tumor weight, dose: 20.0 mg/kg/injection, schedule: Q01DX009 (ip), vehicle: saline) was 4 % of control, the T/C (endpoint: mean tumor weight, dose: 25.0 mg/kg/injection, schedule: Q07DX006 (ip), vehicle: saline) was 105 % of control and the T/C (endpoint: mean tumor weight, dose: 25.0 mg/kg/injection, schedule: Q07DX007 (ip), vehicle: saline) was 92 % of control. The T/C (endpoint: mean tumor weight, dose: 50.0 mg/kg/injection, schedule: Q07DX006 (ip), vehicle: saline) was 10 % of control, the T/C (endpoint: mean tumor weight, dose: 50.0 mg/kg/injection, schedule: Q07DX007 (ip), vehicle: saline) was 11 % of control and the T/C (endpoint: median tumor weight (est.), dose: 5.0 mg/kg/injection, schedule: Q01DX005 (ip), vehicle: saline) was 176 % of control. For the same compound, the T/C (endpoint: median tumor weight (est.), dose: 10.0 mg/kg/injection, schedule: Q01DX005 (ip), vehicle: saline) was 20 % of control, the T/C (endpoint: median tumor weight (est.), dose: 15.0 mg/kg/injection, schedule: Q04DX005 (ip), vehicle: saline) was 17 % of control and the T/C (endpoint: median tumor weight (est.), dose: 15.0 mg/kg/injection, schedule: Q07DX005 (ip), vehicle: saline) was 4 % of control. For the same compound, the T/C (endpoint: median tumor weight (est.), dose: 20.0 mg/kg/injection, schedule: Q01DX005 (ip), vehicle: saline) was 49 % of control, the T/C (endpoint: median tumor weight (est.), dose: 25.0 mg/kg/injection, schedule: Q01DX005 (ip), vehicle: saline) was 39 % of control and the T/C (endpoint: median tumor weight (est.), dose: 25.0 mg/kg/injection, schedule: Q04DX005 (ip), vehicle: saline) was 30 % of control. For the same compound, the T/C (endpoint: median tumor weight (est.), dose: 25.0 mg/kg/injection, schedule: Q07DX005 (ip), vehicle: saline) was 19 % of control, the T/C (endpoint: median tumor weight (est.), dose: 27.0 mg/kg/injection, schedule: Q07DX005 (ip), vehicle: saline) was 86 % of control and the T/C (endpoint: median tumor weight (est.), dose: 30.0 mg/kg/injection, schedule: Q04DX005 (ip), vehicle: saline) was 24 % of control. The T/C (endpoint: median tumor weight (est.), dose: 30.0 mg/kg/injection, schedule: Q07DX005 (ip), vehicle: saline) was 5 % of control, the T/C (endpoint: median tumor weight (est.), dose: 37.5 mg/kg/injection, schedule: Q01DX005 (ip), vehicle: saline) was 14 % of control and the T/C (endpoint: median tumor weight (est.), dose: 37.5 mg/kg/injection, schedule: Q04DX005 (ip), vehicle: saline) was 24 % of control. For the same compound, the T/C (endpoint: median tumor weight (est.), dose: 37.5 mg/kg/injection, schedule: Q07DX005 (ip), vehicle: saline) was 27 % of control, the T/C (endpoint: median tumor weight (est.), dose: 40.0 mg/kg/injection, schedule: Q07DX005 (ip), vehicle: saline) was 48 % of control and the T/C (endpoint: median tumor weight (est.), dose: 50.0 mg/kg/injection, schedule: Q04DX005 (ip), vehicle: saline) was 9 % of control. The T/C [1] was 2 % of control, the T/C (endpoint: median tumor weight (est.), dose: 60.0 mg/kg/injection, schedule: Q07DX005 (ip), vehicle: saline) was 18 % of control and the T/C (endpoint: median tumor weight (est.), dose: 89.0 mg/kg/injection, schedule: Q01DX001 (ip), vehicle: saline) was 30 % of control. The T/C (endpoint: median tumor weight (est.), dose: 90.0 mg/kg/injection, schedule: Q07DX005 (ip), vehicle: saline) was 9 % of control, the T/C (endpoint: median tumor weight (est.), dose: 133.0 mg/kg/injection, schedule: Q01DX001 (ip), vehicle: saline) was 22 % of control and the T/C (endpoint: median tumor weight (est.), dose: 200.0 mg/kg/injection, schedule: Q01DX001 (ip), vehicle: saline) was 21 % of control. The T/C (endpoint: median tumor weight (est.), dose: 270.0 mg/kg/injection, schedule: Q01DX001 (ip), vehicle: saline) was 17 % of control, the T/C [2] was 103 % of control and the T/C [3] was 61 % of control. The T/C [4] was 33 % of control.

`CCCCCCCC(=O)[O][Hg][CH2]C1COC([CH2][Hg][O]C(=O)CCCCCCC)CO1` (configuration not stated) was tested, and the T/C [5] was 90 % of control, the T/C [6] was 95 % of control and the T/C (endpoint: median tumor weight (est.), dose: 6.25 mg/kg/injection, schedule: Q07DX005 (ip), vehicle: saline with Tween-80) was 100 % of control. The T/C [7] was 80 % of control, the T/C (endpoint: median tumor weight (est.), dose: 12.5 mg/kg/injection, schedule: Q07DX005 (ip), vehicle: saline with Tween-80) was 50 % of control and the T/C (endpoint: median tumor weight (est.), dose: 50.0 mg/kg/injection, schedule: Q07DX005 (ip), vehicle: saline with Tween-80) was 100 % of control.

For `COc1cc([C@@H]2c3cc4c(cc3[C@@H](OC3OC5COC(C)OC5C(O)C3O)[C@H]3COC(=O)[C@H]23)OCO4)cc(OC)c1O` (some centres not stated), the T/C (endpoint: median tumor weight (est.), dose: 2.0 mg/kg/injection, schedule: Q07DX005 (ip), vehicle: saline) was 74 % of control, the T/C (endpoint: median tumor weight (est.), dose: 4.0 mg/kg/injection, schedule: Q07DX005 (ip), vehicle: saline) was 110 % of control and the T/C (endpoint: median tumor weight (est.), dose: 8.0 mg/kg/injection, schedule: Q07DX005 (ip), vehicle: saline) was 51 % of control. The T/C (endpoint: median tumor weight (est.), dose: 16.0 mg/kg/injection, schedule: Q07DX005 (ip), vehicle: clinical formulation) was 38 % of control, the T/C (endpoint: median tumor weight (est.), dose: 16.0 mg/kg/injection, schedule: Q07DX005 (ip), vehicle: saline) was 25 % of control and 48 % of control and the T/C (endpoint: median tumor weight (est.), dose: 32.0 mg/kg/injection, schedule: Q07DX005 (ip), vehicle: clinical formulation) was 11 % of control. The T/C (endpoint: median tumor weight (est.), dose: 32.0 mg/kg/injection, schedule: Q07DX005 (ip), vehicle: saline) was 8 % of control and 9 % of control.

For `CNC=O`, the T/C [2] was 54 % of control, the T/C [3] was 75 % of control and the T/C [4] was 59 % of control. For the same compound, the T/C (endpoint: median tumor weight change, dose: 200.0 mg/kg/injection, schedule: Q01DX001 (ip), vehicle: saline sonified) was 48 % of control, the T/C (endpoint: median tumor weight change, dose: 200.0 mg/kg/injection, schedule: Q01DX001 (ip), vehicle: saline) was 72 % of control and the T/C (endpoint: median tumor weight change, dose: 800.0 mg/kg/injection, schedule: Q01DX001 (ip), vehicle: saline) was 154 % of control. The T/C (endpoint: median tumor weight change, dose: 1600.0 mg/kg/injection, schedule: Q01DX001 (ip), vehicle: saline) was 71 % of control and the T/C (endpoint: median tumor weight change, dose: 3200.0 mg/kg/injection, schedule: Q01DX001 (ip), vehicle: saline) was 108 % of control.

In the case of `N#CC(C#N)=C/C=C/c1cccc([N+](=O)[O-])c1`, the T/C (endpoint: median tumor weight (est.), dose: 3.12 mg/kg/injection, schedule: Q07DX005 (ip), vehicle: Klucel (hydroxypropylcellulose) (HPC)) is reported as 122 % of control, the T/C (endpoint: median tumor weight (est.), dose: 6.25 mg/kg/injection, schedule: Q07DX005 (ip), vehicle: Klucel (hydroxypropylcellulose) (HPC)) is reported as 239 % of control and the T/C (endpoint: median tumor weight (est.), dose: 12.5 mg/kg/injection, schedule: Q07DX005 (ip), vehicle: Klucel (hydroxypropylcellulose) (HPC)) is reported as 169 % of control. The T/C (endpoint: median tumor weight (est.), dose: 25.0 mg/kg/injection, schedule: Q07DX005 (ip), vehicle: Klucel (hydroxypropylcellulose) (HPC)) was 152 % of control.

`O=[N+]([O-])c1ccc(Cl)c([N+](=O)[O-])c1` was tested, and the T/C (endpoint: median tumor weight (est.), dose: 15.0 mg/kg/injection, schedule: Q07DX005 (ip), vehicle: saline with Tween-80) was 78 % of control, the T/C (endpoint: median tumor weight (est.), dose: 120.0 mg/kg/injection, schedule: Q07DX005 (ip), vehicle: saline with Tween-80) was 61 % of control and 83 % of control and the T/C (endpoint: median tumor weight (est.), dose: 240.0 mg/kg/injection, schedule: Q07DX005 (ip), vehicle: saline with Tween-80) was 65 % of control.

In the case of `OCCN1CCN(CCCN2c3ccccc3Sc3ccc(C(F)(F)F)cc32)CC1`, the T/C (endpoint: median tumor weight (est.), dose: 3.12 mg/kg/injection, schedule: Q07DX005 (ip), vehicle: saline) is reported as 85 % of control and 109 % of control, the T/C (endpoint: median tumor weight (est.), dose: 6.25 mg/kg/injection, schedule: Q07DX005 (ip), vehicle: saline) is reported as 107 % of control and 122 % of control and the T/C (endpoint: median tumor weight (est.), dose: 12.5 mg/kg/injection, schedule: Q07DX005 (ip), vehicle: saline) is reported as 80 % of control and 83 % of control. The T/C [1] was 47 % of control and 48 % of control.

`CCCCCCCCCCS(=O)CC(CO)NC(=O)/C=C/c1c(C)[nH]c(=O)[nH]c1=O` (configuration not stated) was tested, and the T/C (endpoint: median tumor weight (est.), dose: 0.75 mg/kg/injection, schedule: Q07DX005 (ip), vehicle: saline with Tween-80) was 85 % of control, the T/C (endpoint: median tumor weight (est.), dose: 1.5 mg/kg/injection, schedule: Q07DX005 (ip), vehicle: saline with Tween-80) was 100 % of control and 106 % of control and the T/C [5] was 124 % of control and 113 % of control. For the same compound, the T/C [6] was 76 % of control, the T/C [7] was 23 % of control and the T/C (endpoint: median tumor weight (est.), dose: 48.0 mg/kg/injection, schedule: Q07DX005 (ip), vehicle: saline with Tween-80) was 76 % of control.

`NC(=O)c1ncn2c(=O)n(CCCl)nnc12` was tested, and the T/C (endpoint: median tumor weight change, dose: 6.25 mg/kg/injection, schedule: Q01DX001 (ip), vehicle: suspension in saline) was 69 % of control, the T/C (endpoint: median tumor weight change, dose: 12.5 mg/kg/injection, schedule: Q01DX001 (ip), vehicle: suspension in saline) was 76 % of control and the T/C (endpoint: median tumor weight change, dose: 25.0 mg/kg/injection, schedule: Q01DX001 (ip), vehicle: suspension in saline) was 45 % of control. For the same compound, the T/C (endpoint: median tumor weight change, dose: 50.0 mg/kg/injection, schedule: Q01DX001 (ip), vehicle: suspension in saline) was 41 % of control and 46 % of control.
